Test results published in PubChem BioAssay (NCI).
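Cultured in 96-well plates, cells were exposed to test compound for 48 hours across five concentrations. TGI: concentration producing complete growth inhibition.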 Where a SMILES comes first, the peptide text is derived from it. [ ]: non-standard residue; d: D form. The star is where a group is joined. ξ: configuration not given here. NMeY = CN[C@@H](Cc1ccc(O)cc1)C(=O)O; Cbz = O=C(OCc1ccccc1)*; ξA = CC(N)C(=O)O

Tests used:
Assay in all cases: NCI-60 cell line screen, 48 h
COLO 205 colon = system: COLO 205 colon
HS 578T breast = system: HS 578T breast
K-562 leukemia = system: K-562 leukemia
KM12 colon = system: KM12 colon
MCF7 breast = system: MCF7 breast
NCI-H460 lung = system: NCI-H460 lung
SW-620 colon = system: SW-620 colon
T-47D breast = system: T-47D breast
UACC-257 melanoma = system: UACC-257 melanoma
NCI-H522 lung = system: NCI-H522 lung
HL-60(TB) leukemia = system: HL-60(TB) leukemia

Structure (SMILES) | TGI (COLO 205 colon) [µM] | TGI (HS 578T breast) [µM] | TGI (K-562 leukemia) [µM] | TGI (KM12 colon) [µM] | TGI (MCF7 breast) [µM] | TGI (NCI-H460 lung) [µM] | TGI (SW-620 colon) [µM] | TGI (T-47D breast) [µM] | TGI (UACC-257 melanoma) [µM] | TGI (NCI-H522 lung) [µM] | TGI (HL-60(TB) leukemia) [µM]
CC1=CC2(C)C=C[C@@H]1C(=O)[C@@]1(C)CC[C@@](O)(C(C)C)[C@H]1CC2 | 40.2 | 54.9 | 52.1 | 41.7 | 76 | 32.5 | 37.7 | 88 | 34.1 | – | –
CCOC(=O)/C=C(/C(=O)OCC)n1ccc(=O)n(Cc2cn(CCCCOC(C)=O)nn2)c1=O | > 100 | > 100 | > 100 | > 100 | > 100 | > 100 | > 100 | > 100 | > 100 | 29.3 | –
CCCCC/C=C\C=C\CCCCCCCCC(=O)OC | > 100 | > 100 | > 100 | > 100 | > 100 | > 100 | > 100 | > 100 | > 100 | – | > 100
COc1cc(-c2nc(N)c(C#N)c3c2CCS(=O)(=O)c2ccc(C)cc2-3)cc(OC)c1OC | > 100 | > 100 | > 100 | > 100 | – | > 100 | > 100 | > 100 | > 100 | > 100 | > 100
CCOC(=O)/C(C1=NCCN1C)=C(\O)c1ccccc1 | > 100 | – | > 100 | > 100 | – | > 100 | > 100 | – | > 100 | > 100 | > 100
Cc1cn(C2CC(O)C(Cn3nncc3Cn3cnc4c(N)ncnc43)O2)c(=O)[nH]c1=O (stereo not given) | > 100 | > 100 | – | > 100 | > 100 | – | > 100 | > 100 | > 100 | > 100 | > 100
C1=NN2C(c3ccccc3)=NOC2C2C(c3ccccc3)=NOC12 (stereo not given) | > 100 | > 100 | – | > 100 | > 100 | > 100 | – | – | > 100 | > 100 | –
O=[N+]([O-])C(C(Cl)=C(Cl)Cl)=C(N1CCCCC1)N1CCCCC1 | > 100 | 70.8 | > 100 | > 100 | > 100 | > 100 | > 100 | > 100 | > 100 | – | > 100
COc1cc2c(cc1NC(=O)c1ccccc1)c1c(n2S(=O)(=O)c2ccccc2)CCN(S(=O)(=O)c2ccccc2)C1 | > 100 | > 100 | > 100 | > 100 | – | > 100 | > 100 | > 100 | > 100 | – | > 100
Cn1c2ncccc2n2c(=O)cc(O)cc12 | > 100 | – | > 100 | > 100 | > 100 | > 100 | > 100 | 95.7 | > 100 | > 100 | –
Cc1cc(NS(=O)(=O)c2ccc(NO)cc2)no1 | > 100 | > 100 | 43.7 | > 100 | 47.1 | > 100 | 82.9 | – | > 100 | – | > 100
COC(=O)c1cc(/C=C/C(=O)Cc2ccccc2)cn1S(=O)(=O)c1ccccc1 | > 100 | > 100 | > 100 | > 100 | > 100 | > 100 | – | > 100 | > 100 | > 100 | > 100
COc1ccc2nc3ccc(OC)cc3c(S(=O)Cc3ccccc3)c2c1 (stereo not given) | 25.9 | 33.8 | > 25.6 | 40.5 | – | > 74.5 | > 32.1 | 4.87 | 20.9 | 2.63 | 35.9
COc1ccc(S(=O)(=O)N/N=C(\C)CN2C(=O)c3ccccc3C2=O)cc1OC | > 100 | – | > 100 | > 100 | – | > 100 | > 100 | – | > 100 | > 100 | > 100
O=C(Nc1ccccc1)OCCN=c1c2ccccc2ccc2ccccc12 | 51.4 | 51.3 | 51.1 | 44.4 | – | 59.1 | > 100 | 43.5 | 42.2 | – | 44.9
CCOC(=O)c1c2ccccc2n2c(=O)n(-c3ccc(OC)cc3)nnc12 | > 100 | 55.9 | > 100 | > 100 | > 67.9 | > 100 | > 100 | 92.7 | > 100 | – | > 100
Cc1c(-c2coc(-c3ccc([N+](=O)[O-])cc3)n2)c(=O)n(-c2ccccc2)n1C | > 100 | – | – | > 100 | – | > 100 | – | – | > 100 | > 100 | > 100
COc1ccc(/C=C2/SC(=Nc3ccccc3)N(NC(=O)Cc3ccccc3)C2=O)cc1 | > 100 | > 100 | > 100 | > 100 | > 100 | > 100 | > 100 | > 100 | > 100 | – | > 100
COc1nc(=O)[nH]c2c1C(c1ccc([N+](=O)[O-])cc1)c1c(OC)nc(=O)[nH]c1O2 | > 100 | > 100 | – | > 100 | – | > 100 | > 100 | – | > 100 | > 100 | > 100
Cc1n[nH]c(=O)n1/N=C/c1ccco1 | > 100 | > 100 | > 100 | > 100 | > 100 | > 100 | > 100 | > 100 | > 100 | – | –
N#Cc1c(-c2ccccc2)cn(C(=O)c2ccccc2)c1N | > 100 | > 100 | > 100 | > 100 | > 100 | – | > 100 | – | – | > 100 | > 100
N#CCCC1(CCC#N)S(=O)(=O)OCCOS1(=O)=O | > 100 | 78.4 | – | > 100 | > 100 | – | > 100 | > 100 | > 100 | > 100 | 69.4
CN1C(=O)C(=Cc2ccc(Br)cc2)C(=O)N(C)C1=O | > 100 | – | > 100 | > 100 | > 100 | > 100 | > 100 | > 100 | > 100 | – | –

Structure (SMILES) | TGI (COLO 205 colon) [µM] | TGI (HS 578T breast) [µM] | TGI (K-562 leukemia) [µM] | TGI (KM12 colon) [µM] | TGI (MCF7 breast) [µM] | TGI (NCI-H460 lung) [µM] | TGI (SW-620 colon) [µM] | TGI (T-47D breast) [µM] | TGI (UACC-257 melanoma) [µM] | TGI (NCI-H522 lung) [µM] | TGI (HL-60(TB) leukemia) [µM]
O=C1CCC(=O)c2ccccc2N1 | > 100 | – | > 100 | > 100 | – | > 100 | > 100 | – | > 100 | > 100 | > 100
Cc1cn(CC(=S)NCCc2c[nH]c3ccccc23)c(=O)[nH]c1=O | > 100 | > 100 | > 100 | > 100 | > 100 | – | > 100 | > 100 | – | – | > 100
N#Cc1c(C#N)c(SSc2c(C#N)c(C#N)c(N)n2-c2cccc3ccccc23)n(-c2cccc3ccccc23)c1N | 10.6 | > 57.6 | > 100 | > 100 | > 100 | > 100 | > 100 | 5.47 | 37.6 | 3.15 | –
O=C(O)C12C3CCC(C3)C1(C(=O)O)C1CCC2C1 (stereo not given) | > 100 | – | > 100 | > 100 | – | > 100 | 34.2 | – | > 100 | 54.9 | > 100
CC(=Nc1ccc(Cl)cc1)c1ccncc1 | > 100 | > 100 | > 100 | > 100 | > 100 | > 100 | > 100 | > 100 | > 100 | > 100 | –
N#CCCC(C#N)(C#N)CCC#N | > 100 | – | > 100 | > 100 | – | > 100 | > 100 | – | > 100 | > 100 | > 100
COc1ccc2nc3c4c(nccc4c2c1)-c1ncccc1C3=O | 1.28 | – | 0.174 | 0.706 | 0.179 | 0.119 | 0.567 | 4.81 | 0.196 | – | 0.165
Cc1ccc(S(=O)(=O)c2ccc(C)cc2[N+](=O)[O-])c([N+](=O)[O-])c1 | > 100 | – | > 100 | > 100 | – | > 100 | > 100 | – | – | > 100 | –
C=C1N(C)c2ccc(S(=O)(=O)c3ccc4c(c3)C(C)(C)C(=C)N4C)cc2C1(C)C | 29.8 | 89.2 | – | > 100 | > 100 | > 100 | > 100 | > 100 | > 100 | 58.7 | > 100
COc1cc2ccnc(C#N)c2cc1OCc1ccccc1 | – | – | > 100 | > 100 | – | > 100 | > 100 | – | > 100 | > 100 | –
O=c1[nH]c(=O)n([C@H]2C[C@@H](CO)[C@@H](O)C2)cc1I | > 100 | – | > 100 | > 100 | – | > 100 | > 100 | – | > 100 | > 100 | > 100
COc1ccccc1N1CCN(S(=O)(=O)c2ccc(Cl)cc2)C1=N | > 100 | > 100 | > 100 | > 100 | > 100 | > 100 | > 100 | > 100 | > 100 | > 100 | –
CC(=O)N1C(c2[nH]c3ccccc3c2Cc2ccccc2)CCN1c1ccccc1 (stereo not given) | > 10 | > 10 | > 10 | – | > 10 | > 10 | > 10 | > 10 | > 10 | > 10 | > 10
c1ccc2c(c1)nc1ccccn12 | > 100 | > 100 | > 100 | > 100 | > 100 | > 100 | > 100 | > 100 | > 100 | – | > 100
CC(C)CCNC(=O)c1ccc(CNC(=O)/C=C/c2ccc3ccccc3c2)cc1 | > 100 | – | > 100 | > 100 | > 100 | > 100 | > 100 | > 100 | > 100 | – | > 100
O=C1C(Cl)C(c2ccc(O)cc2)N1n1cnc2ccccc2c1=O (stereo not given) | 58.4 | – | > 100 | > 100 | – | > 100 | 47.8 | – | > 100 | 32.6 | 72.3
Cc1c2c(n3c(nc4ccccc43)c1C#N)N(c1ccc(F)cc1)CC2 | > 100 | > 100 | – | – | > 100 | > 100 | > 100 | – | > 100 | > 100 | > 100
Cc1cc2c(cc1Cl)SC(NNCCO)=NS2(=O)=O | > 100 | > 100 | > 100 | > 100 | > 100 | > 100 | > 100 | > 100 | > 100 | – | > 100
COC(=O)C(=O)C(C(=O)OC)C(=O)C(=O)Nc1cc(Cl)c(C)cc1S(=O)(=O)O (stereo not given) | > 100 | – | > 100 | > 100 | – | > 100 | > 100 | – | > 100 | > 100 | > 100
COc1ccc(C[C@@H](C(=O)N[C@@H](C)C(N)=O)N(C)C(=O)[C@@H]2CCCN2C(=O)[C@H](CC(C)C)NC(=O)C(C)NC(=O)OCc2ccccc2)cc1 (stereo not given in full) (Cbz-[ξA]LP[NMeY](Me)A-NH2) | > 100 | > 100 | > 100 | > 100 | > 100 | > 100 | > 100 | > 100 | – | > 100 | > 100
COC(C)=NCCC1=CCCCC1 | > 100 | > 100 | > 100 | > 100 | > 100 | > 100 | > 100 | > 100 | > 100 | > 100 | –
COP12(OC)NC(=O)OC1(C(F)(F)F)c1ccccc1O2 (stereo not given) | – | – | > 100 | > 100 | – | > 100 | – | – | > 100 | > 100 | > 100
CC(=O)Oc1ccc2c(c1)[nH]c1c3ccc(OC(C)=O)cc3oc(=O)c21 | > 100 | > 100 | > 100 | > 100 | 90.4 | > 100 | > 100 | 48.9 | > 100 | > 100 | –
